Measured values reported in a melting point compilation (Tetko et al.; mined from patent text by program, amines drawn as free bases though some values may be those of a salt).

Row | SMILES | melting point [°C]
1 | CCC(=O)N(CC)c1cccc(-c2ccc3nncn3n2)c1 | 127 to 130
2 | CCC(C)c1ccc(NS(=O)(=O)c2ccc(N3CCNC3=O)cc2)cc1 (centres undefined) | 157 to 159
3 | C=CCc1c(O)cc(OC)c2c(C)cc(=O)oc12 | 198
4 | CCCCOc1c(N(C)C(=O)OC(C)(C)C)n(CC(C)C)c(=O)c2ccc(-c3cnco3)cc12 | 152 to 153
5 | Cc1oc(-c2ccccc2)nc1COc1cccc(CSc2cccc(CCC(=O)O)c2)c1 | 120 to 121
6 | FC(F)(F)c1ccc2nc(N3CCN(c4ccncc4C(F)(F)F)CC3)[nH]c2c1 | 220 to 224
7 | CCCN(CCC)C(=O)CNc1nc(-c2ccccc2)nc(C)c1CC | 83 to 84
8 | CCCCOCC(CN1C(=O)NC(=O)C(CC)(c2ccccc2)C1=O)OC(N)=O (centres undefined) | 104
9 | CCOC(=O)c1ccc2cc(-c3cc4ccccc4o3)ccn2c1=O | 195 to 197
10 | Nc1cnn2cnc3ccccc3c12 | 168 to 170
11 | COc1nc(-c2ccc(Cl)cc2)nc(Cl)c1Cl | 157 to 159
12 | CC(=O)NCC1CN(c2ccc(N3CCC(=CC#N)C(C)C3)c(F)c2)C(=O)O1 (centres undefined) | 152 to 153
13 | CCCOc1ccc(S(=O)(=O)NCCN(C)C)cc1-c1nc2cc3nc[nH]c3cc2c(=O)[nH]1 | 212 to 214
14 | CCCCc1nc(Cl)c(Cc2nnn[nH]2)n1Cc1ccc(C(=O)c2ccccc2C(=O)O)cc1 | 228 to 230
15 | OCc1cccc2cc3ccccc3cc12 | 124 to 125
16 | COc1cc(Nc2nc3cccc(-c4ccc(C)c(N)c4)c3o2)cc(OC)c1OC | 188 to 190
17 | CCCc1c(OCCCCCOc2cc3c(cc2C(C)=O)CC[C@@H](C(=O)O)O3)ccc(C(C)=O)c1O | 94 to 97.5
18 | O=C(Nc1ccc(F)cc1)Nn1cnc2ccccc2c1=O | 237 to 238
19 | COc1ccc(F)cc1OCCNCCCc1c[nH]c2ccc(F)cc12 | 119 to 122
20 | CC(C)(O)c1ccc(C(=O)Nc2cn3cc(-n4ccnc4)ccc3n2)cc1 | 281 to 282

Row | SMILES | melting point [°C]
21 | CC(C)CCc1c(-c2ccc(S(N)(=O)=O)cc2)cnn(-c2cccc(Cl)c2)c1=O | 167 to 170
22 | CC(c1nnnn1C)C(O)(c1ccc(F)cc1)c1ccc(F)cc1 (centres undefined) | 160 to 161
23 | O=C(CCCCCNC(=O)CCc1ccco1)NO | 127 to 128
24 | COc1ccccc1NC(=O)CN1C(=O)c2ccccc2C1=O | 211
25 | COc1ccc(CCNc2nc(Cl)nc(N3CCc4cc(OC)c(OC)cc4C3)n2)cc1OC | 152 to 153
26 | CS(=O)(=O)CC1COCc2nc3c(N)nc4ccccc4c3n21 (centres undefined) | 158 to 161
27 | CN=C1SCC(O)(c2ccc(Cl)c(S(=O)(=O)NCC(C)OC)c2)N1C (centres undefined) | 148
28 | O=C(Nc1ccc(Cl)cc1)NC1N=C(c2ccccc2)c2ccccc2N(CC(=O)N2CCCC2)C1=O (centres undefined) | 264 to 266
29 | O=C(O)Cc1ccc(Oc2ccc(Cl)nn2)cc1 | 124 to 127
30 | CC(C)c1cc2c(cc1C(SCC(=O)O)c1ccccc1)OCO2 (centres undefined) | 114
31 | CN(C)S(=O)(=O)c1cc(-c2csc(=Nc3ccc4c(c3)OCCO4)n2C)ccc1Cl | 200 to 203
32 | O=C(O)C1CCN(C(=O)NS(=O)(=O)C=Cc2ccccc2)CC1 | 179 to 181
33 | COCC1CN(c2ccc(C3CCC4(CC3)OCCO4)nc2)C(=O)O1 (racemic) | 93 to 94
34 | COC(=O)c1ccc(-c2cc(C(=O)NC3CC3)cc(F)c2C)c(C(=O)O)c1 | 217 to 222
35 | O=C1CCc2ccc(OCCCCOc3ccc4c(c3)NC(=O)CC4)cc2N1 | 218
36 | CC(C)(C)NS(=O)(=O)c1cccc(NC(=O)c2cnn3c(C4CC4)cc(-c4ccc(C(F)(F)F)cc4)nc23)c1 | 258 to 259
37 | COP(=O)(OC)C1CC(c2ccc([N+](=O)[O-])cc2)=NO1 (centres undefined) | 156 to 158
38 | COC(=O)C(C)(C)Cc1c(C(=O)c2ccc(Cl)cc2)c2ccc(OC(=O)c3ccc(Cl)cc3)cc2n1C | 138
39 | NS(=O)(=O)c1ccccc1OCCO | 94 to 99
40 | CCc1cc2cc([N+](=O)[O-])ccc2o1 | 86

Row | SMILES | melting point [°C]
41 | O=C1CC(c2ccc3oc4c(c3c2)CCCC4)CC(=O)O1 | 164 to 166
42 | Cc1c(N2CC(F)[C@](C)(N)C2)c(F)cc2c(=O)c(C(=O)O)cn([C@@H]3C[C@@H]3F)c12 (some centres undefined) | 215 to 217
43 | CN1CCN(c2ccc(N)c(C(=O)O)c2)CC1 | 212
44 | Cc1ccc(S(=O)(=O)N(OC(C)C)c2ccc([N+](=O)[O-])cc2Cl)cc1 | 160 to 162
45 | Cc1nn(CCO)c(C)c1Sc1cc(Cl)cc(Cl)c1 | 118 to 120
46 | COc1cc2c(c(Cl)c1Cl)C(=O)C(C)(c1ccccc1)C2 (centres undefined) | 161 to 163
47 | Cc1cc(Cl)nnc1-c1cccc([N+](=O)[O-])c1 | 169 to 171
48 | O=C(O)c1ccc2c(c1)S(=O)c1cc(F)ccc1C=C2 (centres undefined) | 255 to 257
49 | CS(=O)(=O)OC[C@H]1CN(c2ccc(C3=CCSCC3)c(F)c2)C(=O)O1 | 138 to 141
50 | O=C(Nc1ccc2nc(CN3CCCCC3)ccc2c1)c1ccc(-c2ccc(F)cc2F)nc1 | 182 to 183
51 | COC(=O)NC(=O)n1cc(C(=O)c2ccn3c2CSC3c2cccnc2)c2ccc(OCc3ccccc3)cc21 (centres undefined) | 152 to 153
52 | Fc1ccc(C#CCCC#Cc2ccccn2)cc1 | 68 to 69
53 | N#Cc1ccc(-c2ccc(SC3SCC(O)C(O)C3O)cc2)cc1 (centres undefined) | 168
54 | Cc1ccc(C(=O)NCCCn2ccnc2)c(Nc2ccc3cn[nH]c3c2)n1 | 203 to 205
55 | CN(Cc1cccc(-c2ccc(CC3SC(=O)NC3=O)cc2)c1)C(=O)Cc1ccccc1 (centres undefined) | 73
56 | CNc1cc2c(cn1)c(=O)n1nccc1n2C | > 300
57 | CC(C)(C)OC(=O)NCCCCn1c(-c2ccccc2)cc2ccc(C(=O)c3cc(CC(=O)O)c(-c4ccccc4)s3)cc21 | 167 to 169
58 | CC1CCN(S(=O)(=O)Nc2cc(C(c3cc(F)ccc3F)S(=O)(=O)c3ccc(Cl)cc3)c(Cl)cn2)CC1 (centres undefined) | 215 to 218

The next lines start with the values.

Row | melting point [°C] | SMILES
59 | 208 to 210 | COc1cc2c(cc1C(F)(F)F)N(C(=O)Nc1ccc(Sc3cccnc3)nc1)CC2
60 | 266 to 267 | CCCCc1cc2c(=O)n3cc(C(N)=O)ccc3nc2s1
61 | 148 to 150 | COC(=O)c1cccc(COc2ccc(S(=O)(=O)c3ccc(C)nc3Nc3c(C)cc(C)cc3C)cc2)c1
62 | > 250 | O=c1[nH]c2cscc2c(=O)n1CCN1CCN(c2ccc(F)cc2)CC1
63 | 135 to 137 | Cn1ncnc1COc1nn2c(-c3ccccc3F)nnc2cc1CC1CCCC1
64 | 60 to 62 | O=C(Cl)c1cc(Cl)c(Cl)c(Cl)n1
65 | 162 | COc1ccc(C(C)N(C)CCCOc2ccc(S(=O)(=O)c3ncsc3-c3ccccc3)cc2)cc1OC (centres undefined)
66 | 52 | CCCCCCCCC1(C#N)CCC(c2ccc(-c3ccc(CCCC)cc3)cc2)CC1 (centres undefined)
67 | 208 to 210 | Cn1cc(S(=O)(=O)NCc2ccccc2)c(=O)c2ccc(Cl)cc21
68 | 225 to 228 | NCc1ccc(S(=O)(=O)c2ccc(S(N)(=O)=O)s2)cc1
69 | 46 | CC(C)(S)CN1CCN(C(=O)c2ccc(O)cc2)CC1
70 | 93 | CNc1cccc([N+](=O)[O-])c1N
71 | 137 to 138 | Cc1ccc(-c2c(C#N)c(CC(C)C)nc3ccc(OCc4ccccc4)cc23)cc1
72 | 160 to 165 | N#Cc1ccc(C(=O)CNc2ccc(I)cc2)cc1
73 | 122 | CC(C)(C)OC(=O)N[C@@H](Cc1cc(F)cc(F)c1)[C@H](O)CO
74 | 93 to 101 | CCCCOCCOc1ccc(-c2ccc3c(c2)C=C(C(=O)Nc2ccc(S(=O)CCc4nncn4CCC)cc2)CCN3CCC)cc1 (centres undefined)
75 | > 300 | Oc1cc(-c2c(-c3ccccc3)nn3ccccc23)n[nH]1
76 | 162 to 167 | Cc1cc(C)c(N)c(C(N)=O)c1
77 | 108 to 110 | CCOc1nc2ccccc2nc1NC(=O)N1CCN(c2cccc(C)c2C)CC1
78 | 134 to 138 | CCOC(=O)c1cc(C(O)CBr)c(=O)[nH]c1C(=O)OCC (centres undefined)
79 | 120 to 121 | CCOC(=O)c1c(Cl)nc2ccc(Br)cc2c1Cl

Row | melting point [°C] | SMILES
80 | 145 to 146 | Cc1ccc2c(c1)nc(/C=C/c1ccccc1)n2-c1ccccn1
81 | 138 | CC1=C(C(=O)OC(C)C)C(c2cccc([N+](=O)[O-])c2)N(C(=O)OC(C)C)C(=S)N1 (centres undefined)
82 | 101 | C=C(C)c1ccc2cc(OC)ccc2c1
83 | 119 to 120 | COc1ccc(Sc2cnc(N)s2)cc1
84 | 215 to 219 | S=C1CSc2ccccc2CN1
85 | 295 to 298 | C[C@@H]1CCCN1CCc1ccc2cc(-c3ccc(=O)[nH]n3)ccc2c1
86 | 192 | COc1ccc(CCN(CC(C)C)S(=O)(=O)N[C@@H](Cc2ccc(NC(=O)c3c(Cl)cncc3Cl)cc2)C(=O)O)cc1OC
87 | 92 to 93 | COC(=O)c1cccc([N+](=O)[O-])c1N
88 | 114 to 116 | COC1(c2ccc(C)cc2)CCC(=NO)CC1 (centres undefined)
89 | 268 | CNC(=O)n1ccc(O)cc1=O
90 | 110 to 112 | Cn1c(COc2ccc(C(C)(CCC(=O)O)c3ccc(OCc4nc5ccccc5n4C)cc3)cc2)nc2ccccc21
91 | 294 to 296 | O=C(O)/C=C/n1cnc2ccc(O)cc2c1=O
92 | 128 to 130 | COc1ccc2c(c1)CCNC2=O
93 | 83 to 87 | COc1ccccc1-n1nnc2cc(F)c(N3C(=O)C4=C(CCCC4)C3=O)cc21
94 | 85 to 87 | CCOC(=O)c1nn(CC)c2nccc(O)c12
95 | 224 to 227 | COc1ccc(-n2nc(C)c3c(C(=O)Nc4c(C)ccnc4C)cc(C)nc32)cc1
96 | 127 to 130 | Cc1cc(C(=O)N2Cc3ccc(C(=O)O)n3Cc3ccccc32)ccc1-c1ccccc1C(F)(F)F
97 | 100 to 115 | Cc1nn(-c2c(Cl)cc(C(F)(F)F)cc2Cl)nc1Cl
98 | 48 to 50 | CC(C)CC=Cc1c(C(C)C)nc(C(C)C)c(CO)c1-c1ccc(F)cc1
99 | > 270 | CCn1c(=O)c2[nH]c(/C=C/c3cc4c(cc3Br)OCO4)nc2n(CC)c1=O
